Legend:
[1] = Henry solubility constant Hcp at 298.15 K (mol/(m3 Pa))
[2] = Henry solubility constant Hcp at 293 K (mol/(m3 Pa))
[3] = Henry solubility constant Hcp at 310 K (mol/(m3 Pa))
[4] = reference: Warner et al. (1980)
[5] = reference: Yurteri et al. (1987)
[6] = reference: Bissonette et al. (1990)
[7] = reference: Gossett et al. (1985)
[8] = reference: Lincoff and Gossett (1984)
[9] = reference: Munz and Roberts (1987)
[10] = reference: Robbins et al. (1993)
[11] = reference: Vane and Giroux (2000)
[12] = reference: Chiang et al. (1998)
[13] = reference: Pearson and McConnell (1975)
[14] = reference: Sheikheldin et al. (2001)

Question: For `ClC1=C(Cl)[C@]2(Cl)[C@@H]3[C@@H]4C[C@@H]([C@H]5O[C@@H]45)[C@@H]3[C@@]1(Cl)C2(Cl)Cl` [dieldrin], which “Henry solubility constant Hcp” value [1, 4] is on record?
Answer: 0.17

Question: And the “Henry solubility constant Hcp at 293 K” value ([2]; reference: Slater and Spedding (1981))?
Answer: 0.34

Question: For `CC1=CCC2C(C1)C2(C)C` (stereo unspecified) [3,7,7-trimethyl-bicyclo[4.1.0]hept-3-ene], which “Henry solubility constant Hcp at 310 K” value ([3]; reference: Falk et al. (1990)) is on record?
Answer: 0.00016

Question: With `c1ccc2ccccc2c1` [naphthalene] as the compound, how does the “Henry solubility constant Hcp” value ([1]; reference: Alaee et al. (1996)) read?
Answer: 0.023

Question: What about the “Henry solubility constant Hcp” value ([1]; reference: Bobadilla et al. (2003)) of the same compound?
Answer: 0.04

Question: What about the “Henry solubility constant Hcp” value ([1]; reference: Mackay et al. (1979)) of the same compound?
Answer: 0.02

Question: What about the “Henry solubility constant Hcp” value ([1]; reference: Schwarz and Wasik (1977)) of the same compound?
Answer: 0.022

Question: And the “Henry solubility constant Hcp” value ([1]; reference: Southworth (1979))?
Answer: 0.018

Question: What about the “Henry solubility constant Hcp” value ([1]; reference: Webster et al. (1985)) of the same compound?
Answer: 0.026

Question: And the “Henry solubility constant Hcp at 293 K” value ([2]; reference: De Maagd et al. (1998))?
Answer: 0.022

Question: And the “Henry solubility constant Hcp at 293 K” value [2, 5]?
Answer: 0.027

Question: Which “Henry solubility constant Hcp” value ([1]; reference: Bebahani et al. (2002)) does the source give for `CC#N` [ethanenitrile] here?
Answer: 0.49

Question: And the “Henry solubility constant Hcp” value ([1]; reference: Benkelberg et al. (1995))?
Answer: 0.53

Question: What about the “Henry solubility constant Hcp” value ([1]; reference: Hamm et al. (1984)) of the same compound?
Answer: 0.53

Question: And the “Henry solubility constant Hcp” value ([1]; reference: Ji and Evans (2007))?
Answer: 0.52

Question: And the “Henry solubility constant Hcp” value ([1]; reference: Snider and Dawson (1985))?
Answer: 0.48

Question: What about the “Henry solubility constant Hcp at 293 K” value ([2]; reference: Yu (1992)) of the same compound?
Answer: 0.082

Question: Which results are given for `ClC(Cl)=C(Cl)Cl` [tetrachloroethene]?
Answer: Henry solubility constant Hcp [1, 6]: 0.00062; Henry solubility constant Hcp ([1]; reference: Chen et al. (2012)): 0.00062; Henry solubility constant Hcp ([1]; reference: Ervin et al. (1980)): 0.00057; Henry solubility constant Hcp ([1]; reference: Gossett (1980)): 0.0011; Henry solubility constant Hcp ([1]; reference: Gossett (1987)): 0.00056; Henry solubility constant Hcp [1, 7]: 0.00065; Henry solubility constant Hcp ([1]; reference: Knauss et al. (2000)): 0.00048; Henry solubility constant Hcp [1, 8]: 0.00057; Henry solubility constant Hcp [1, 9]: 0.00054; Henry solubility constant Hcp ([1]; reference: Park et al. (1997)): 0.00055; Henry solubility constant Hcp ([1]; reference: Peng and Wan (1997)): 0.00061; Henry solubility constant Hcp ([1]; reference: Peng and Wan (1998)): 0.00078; Henry solubility constant Hcp [1, 10]: 0.00058; Henry solubility constant Hcp ([1]; reference: Shimotori and Arnold (2003)): 0.00058; Henry solubility constant Hcp ([1]; reference: Tancrède and Yanagisawa (1990)): 0.00059; Henry solubility constant Hcp [1, 11]: 0.0006; Henry solubility constant Hcp [1, 4]: 0.00034; Henry solubility constant Hcp at 293 K [2, 12]: 0.00062; Henry solubility constant Hcp at 293 K [2, 13]: 0.0005; Henry solubility constant Hcp at 293 K [2, 5]: 0.00075

Question: Which “Henry solubility constant Hcp” value [1, 6] does the source give for `CC(Cl)(Cl)Cl` [1,1,1-trichloroethane] here?
Answer: 0.00051

Question: What about the “Henry solubility constant Hcp” value ([1]; reference: Chen et al. (2012)) of the same compound?
Answer: 0.00054

Question: And the “Henry solubility constant Hcp” value ([1]; reference: Ervin et al. (1980))?
Answer: 0.00027

Question: What about the “Henry solubility constant Hcp” value ([1]; reference: Gossett (1987)) of the same compound?
Answer: 0.00059

Question: What about the “Henry solubility constant Hcp” value [1, 7] of the same compound?
Answer: 0.00057

Question: What about the “Henry solubility constant Hcp” value ([1]; reference: Hunter-Smith et al. (1983)) of the same compound?
Answer: 0.00076

Question: What about the “Henry solubility constant Hcp” value [1, 8] of the same compound?
Answer: 0.00059

Question: And the “Henry solubility constant Hcp” value [1, 9]?
Answer: 0.00058

Question: And the “Henry solubility constant Hcp” value [1, 10]?
Answer: 0.00055

Question: And the “Henry solubility constant Hcp” value ([1]; reference: Turner et al. (1996))?
Answer: 0.00048

Question: What about the “Henry solubility constant Hcp” value [1, 11] of the same compound?
Answer: 0.00062

Question: And the “Henry solubility constant Hcp” value [1, 4]?
Answer: 0.002

Question: What about the “Henry solubility constant Hcp at 293 K” value [2, 12] of the same compound?
Answer: 0.00071

Question: What about the “Henry solubility constant Hcp at 293 K” value [2, 13] of the same compound?
Answer: 0.00029

Question: And the “Henry solubility constant Hcp at 293 K” value [2, 5]?
Answer: 0.00063

Question: For `FC(F)OC(F)(F)C(F)Cl` (stereo unspecified) [2-chloro-1,1,2-trifluoroethyl difluoromethyl ether], which “Henry solubility constant Hcp at 310 K” value ([3]; reference: Lerman et al. (1983)) is on record?
Answer: 0.00029

Question: For `CSC` [dimethyl sulfide], which “Henry solubility constant Hcp” value ([1]; reference: Barcellos da Rosa et al. (2003)) is on record?
Answer: 0.0064

Question: What about the “Henry solubility constant Hcp” value ([1]; reference: Bruneel et al. (2016)) of the same compound?
Answer: 0.0047

Question: What about the “Henry solubility constant Hcp” value ([1]; reference: Coquelet and Richon (2005)) of the same compound?
Answer: 0.0052

Question: And the “Henry solubility constant Hcp” value ([1]; reference: Dacey et al. (1984))?
Answer: 0.0055

Question: What about the “Henry solubility constant Hcp” value ([1]; reference: De Bruyn et al. (1995b)) of the same compound?
Answer: 0.0047

Question: What about the “Henry solubility constant Hcp” value ([1]; reference: Gershenzon et al. (2001)) of the same compound?
Answer: 0.0047

Question: What about the “Henry solubility constant Hcp” value ([1]; reference: Iliuta and Larachi (2005a)) of the same compound?
Answer: 0.0055

Question: What about the “Henry solubility constant Hcp” value ([1]; reference: Lovelock et al. (1972)) of the same compound?
Answer: 0.0016

Question: And the “Henry solubility constant Hcp” value ([1]; reference: Marin et al. (1999))?
Answer: 0.016

Question: And the “Henry solubility constant Hcp” value ([1]; reference: Pollien et al. (2003))?
Answer: 0.0049

Question: And the “Henry solubility constant Hcp” value ([1]; reference: Schuhfried et al. (2011))?
Answer: 0.0046

Question: And the “Henry solubility constant Hcp” value ([1]; reference: Straver and de Loos (2005))?
Answer: 0.0049

Question: What about the “Henry solubility constant Hcp” value ([1]; reference: Wong and Wang (1997)) of the same compound?
Answer: 0.0042

Question: What about the “Henry solubility constant Hcp at 293 K” value ([2]; reference: Vitenberg et al. (1975)) of the same compound?
Answer: 0.0061

Question: With `CCOCCO` [2-ethoxyethanol] as the compound, how does the “Henry solubility constant Hcp at 310 K” value ([3]; reference: Johanson and Dynésius (1988)) read?
Answer: 8.9

Question: Which “Henry solubility constant Hcp” value ([1]; reference: Metcalfe et al. (1980)) does the source give for `COP(=S)(OC)Oc1ccc([N+](=O)[O-])cc1` [methylparathion] here?
Answer: 99

Question: And the “Henry solubility constant Hcp at 293 K” value ([2]; reference: Rice et al. (1997b))?
Answer: 260

Question: With `OCCO` [1,2-ethanediol] as the compound, how does the “Henry solubility constant Hcp” value ([1]; reference: Butler and Ramchandani (1935)) read?
Answer: 160

Question: And the “Henry solubility constant Hcp at 293 K” value ([2]; reference: Bone et al. (1983))?
Answer: 4000

Question: Which “Henry solubility constant Hcp” value ([1]; reference: Tabai et al. (1997)) does the source give for `Oc1ccc(Cl)cc1Cl` [2,4-dichlorophenol] here?
Answer: 6.6

Question: And the “Henry solubility constant Hcp at 293 K” value [2, 14]?
Answer: 3.4

Question: Which results are given for `Cc1ccc(O)c(C)c1` [1-hydroxy-2,4-dimethylbenzene]?
Answer: Henry solubility constant Hcp ([1]; reference: Dohnal and Fenclová (1995)): 4.9; Henry solubility constant Hcp at 293 K [2, 14]: 6.6

Source: Sander's compilation of Henry's law constants
